Three compounds from patent US11672795B2, “Compositions and methods for treating pulmonary vascular disease” (UNIVERSITY OF PITTSBURGH-OF THE COMMONWEALTH SYSTEM OF …, priority 2016, dated 2023) can be followed below.

SMILES strings stand for the structures.

One assay has as its system GLS1. In words: Targeted LC-MS/MS of intracellular metabolites in PAECs on soft or stiff matrix with GLS inhibitors. The conditions noted are these: BPTES 10 μM, DON 5 μM; for glutamate and aspartate / glutamine, pyruvate, and succinate / lactate: compared with stiff matrix control; for alterations of metabolite expression in stiff matrix (stiffness-induced glutamine consumption, glutamate production, aspartate production) / lactate/pyruvate ratio (glycolysis): C968 10 μM, stiff matrix. It counts as cell-based, human. As to the method:
HEK293T cells (American Type Culture Collection) were cultivated in DMEM containing 10% fetal bovine serum (FBS). Primary human pulmonary arterial endothelial cells (PAECs) were grown in EGM-2 cell culture media (Lonza), and experiments were performed at passages 3 to 6. Primary human pulmonary arterial smooth muscle cells (PASMCs) were cultured in SmGM-2 cell culture media (Lonza), and experiments were performed at passages 3 to 9. Inhibitors of GLS1 (2, 3): BPTES (Bis-2-(5-phenylacetamido-1,3,4-thiadiazol-2-yl)ethyl sulphide), DON (6-Diazo-5-oxo-L-norleucine), and C968 (Glutaminase Inhibitor, Compound 968, 5-(3-Bromo-4-(dimethylamino)phenyl)-2,2-dimethyl-2,3,5,6-tetrahydrobenzo[a]phenanthridin-4(1H)-one) were purchased from Sigma-Aldrich and used at concentration of 10 μM, 5 μM and 10 μM respectively. Glutamate was purchased from Sigma Aldrich and used at concentration of 2 mM. Aspartate was purchased from Sigma Aldrich and used at concentration of 10 mM.
Metabolite extraction was performed essentially as described with minor modifications (35). Briefly, metabolites were extracted from cultured cells and CD31+ cells on dry ice using 80% aqueous methanol pre-cooled at −80° C. Metabolites were extracted from plasma pre-cleared by centrifugation at 20,000×g for 10 min at 4° C. Supernatants were extracted with four volumes of 100% methanol pre-cooled at −80° C. for four hours at −80° C. An internal standard, [^13C4]-2-oxoglutarate (Cambridge Isotope Laboratories) was added during metabolite extraction. Insoluble material from both cell and plasma extractions was removed by centrifugation at 20,000×g for 15 min at 4° C. The supernatant was analysed by targeted LC-MS/MS as previously described (36). Metabolites were separated using a ZIC-HILIC stationary phase (150 mm×2.1 mm×[…]; Merck). The MS parameters were optimized using a glutamine standard solution. Monitored mass transitions were 87>87 (pyruvate), 115>73+99 (succinate), 132>88 (aspartate), 145>101 (20G), […] (glutamine), 146>128 (glutamate), and 149>105 ([^13C4]-20G). Mass transitions and retention time windows were confirmed by the analysis of neat and matrix-spiked standards. Peak areas were quantified by Xcalibur Software (Thermo) and manually reviewed.
To determine whether GLS1 is critical for stiffness-induced and YAP/TAZ-dependent glutaminolysis, PAECs were cultivated in soft or stiff matrix, and exposed to known inhibitors of two isoforms of GLS1 (KGA and GAC), BPTES (Bis-2-(5-phenylacetamido-1,3,4-thiadiazol-2-yl)ethyl sulphide), DON (6-Diazo-5-oxo-L-norleucine), or CB-968 (glutaminase inhibitor, compound 968, C-968) (FIG. 3A-C) or siRNA (si-GLS; FIG. 3D-G). As quantified by LC-MS/MS, inhibition of GLS in PAECs blunted the stiffness-induced processes of glutamine consumption, glutamate production, and aspartate production (FIGS. 3A and E). […] Similar alterations of metabolic activity were observed when inhibiting GLS1 in PASMCs (data not shown).

Assay [1] concerns PAECs. In words: Apoptosis of PAECs on soft or stiff matrix (caspase 3/7 activity, cleaved caspase-3 staining). It counts as cell-based, human. As to the method: A-C) PAECs were plated on soft (1 kPa) or stiff (50 kPa) matrix and exposed to indicated treatments. Apoptosis (A-C) and proliferation (B-C) were quantified 48 h after plating. […] In all panels, mean expression in control groups (soft matrix) was assigned a fold change of 1, to which relevant samples were compared. Data are expressed as mean±SD (*P<0.05; ** P<0.01, ***P<0.001).
(§1) After various indicated treatments, cultured cells were fixed with PBS/PFA 4% for 10 min and permeabilized with PBS/Triton 100×0.1% for 10 min. The cells were then incubated with anti-PCNA (#4912; 1/100; Invitrogen), anti-Ki67 (ab15580; 1/200; Abcam), and/or anti-cleaved caspase-3 (1/200; Cell Signaling) at room temperature for 2 hours. Secondary antibodies coupled with Alexa-594 and/or Alexa-488 (Thermo Scientific) were used at 1/500. Nuclei were counterstained with DAPI (Sigma).
Caspase 3/7 activity was quantified using the Caspase-Glo 3/7 Assay (Promega), according to manufacturer's instructions. Briefly, cells were plated on hydrogel of different stiffness and treated as described. Twenty four hours after plating, cells were cultured in the presence or absence of serum for twenty-four hours. Cells were then lysed and 10 μg of total protein were incubated for 1 h with the caspase substrates, and luminescence was quantified by plate reader (SynergyHTX multi-mode reader, Biotek).

Assay [2] deals with PAECs. Description: Proliferation of PAECs (cell count, BrdU pulse, PCNA staining). The format is cell-based, human. As to the method:
A-C) PAECs were plated on soft (1 kPa) or stiff (50 kPa) matrix and exposed to indicated treatments. Apoptosis (A-C) and proliferation (B-C) were quantified 48 h after plating. […] Apoptosis (as reflected by cleaved caspase-3 staining, CC-3+) was increased by serum starvation in both soft and stiff conditions but was not affected by GLS1 inhibition. In all panels, mean expression in control groups (soft matrix) was assigned a fold change of 1, to which relevant samples were compared. Data are expressed as mean±SD (*P<0.05; ** P<0.01, ***P<0.001).
as §1
After specified pre-treatment or transfection protocols as indicated, PAECs or PASMCs were plated in triplicate in 6 well plates at 30 000 cells per well. After overnight incubation for cells to adhere, 6 wells were counted to determine initial count at time of treatments (glutamate, aspartate, BPTES, DON or C968). After 2 days, 4 days or 6 days, the contents of the wells were trypsinized and counted, and proliferation rate was calculated.
Exponentially growing cells were plated in the indicated matrix for 48 hours.

Assay [3] has as its system PAAFs. In words: Metabolic activation of PAAFs cultivated on stiff matrix. It counts as cell-based. An excerpt:
(§2) A-C) Pharmacological inhibition of GLS1 by either BPTES, C968 or CB839 blunted metabolic activation of PAAFs cultivated on stiff matrix as reflected by decreased glutaminolysis (A), glycolysis (B) and aspartate production (C). D-E) Pharmacological inhibition of GLS1 by either BPTES, C968 or CB839 decreased PAAFs dependent ECM remodelling upon stimulation by pro-inflammatory cytokines (EDN1, IL6 or TGF-b). […] G-H) Fibrilar collagen visualization (G) and quantification (H) by picrosirius red staining confirmed a decreased of ECM remodelling by activated PAAF (TGF-b) in presence of GLS1 inhibitors. I-M) PAAFs were cultivated upon indicated treatments. Cells were removed and pulmonary arterial endothelial cells (PAECs) were cultivated on the matrix synthesized by the PAAF. […] Data are expressed as mean±SEM (*P<0.05, § P<0.01, #P<0.001) of at least 3 independent experiments performed in triplicate. Paired samples were compared by 2-tailed Student's t test, while 1-way ANOVA and post-hoc Tukey's tests were used for group comparisons.

Assay [4] has as its system PAAFs. In words: PAAF-dependent ECM remodelling on cytokine stimulation (RT-qPCR, picrosirius red). The format is cell-based. The conditions noted are these: stimulation by pro-inflammatory cytokines (EDN1, IL6 or TGF-b).
Description: as §2
Messenger RNAs were reverse transcribed using the Multiscript RT kit (Life Technologies) to generate cDNA. cDNA was amplified via fluorescently labeled Taqman primer sets using an Applied Biosystems 7900HT Fast Real Time PCR device. To specifically determine the relative expression of the two GLS1 isoforms KGA and GAC, TaqMan gene expression assays Hs01014019_m1 and Hs01022166_m1 were used respectively. Fold-change of RNA species was calculated using the formula (2^−ΔΔCt), normalized to RPLP0 expression.
Picrosirius Red stain was achieved through the use of 5 μm paraffin sections stained with 0.1% Picrosirius Red (Direct Red80, Sigma-Aldrich) and counterstained with Weigert's hematoxylin to reveal fibrillar collagen. The sections were then serially imaged using with an analyzer and polarizer oriented parallel and orthogonal to each other. Microscope conditions (lamp brightness, condenser opening, objective, zoom, exposure time, and gain parameters) were maintained throughout the imaging of all samples. A minimal threshold was set on appropriate control sections for each experiment in which only the light passing through the orthogonally-oriented polarizers representing fibrous structures (i.e., excluding residual light from the black background) was included. The threshold was maintained for all images across all conditions within each experiment. The area of the transferred regions that was covered by the thresholded light was calculated and at least 10 sections/vessel per condition were averaged together (NIH ImageJ software). Targeted LC-MS/MS
On the technique in general: Quantitative PCR measures a nucleic acid by following its amplification.

As for `O=C(Cc1ccccc1)Nc1nnc(CCSCCc2nnc(NC(=O)Cc3ccccc3)s2)s1` [BPTES, Bis-2-(5-phenylacetamido-1,3,4-thiadiazol-2-yl)ethyl sulphide], in the assay with GLS1, the glutamate and aspartate result is “decreased”; the “glutamine, pyruvate, and succinate” value is “increased”; the lactate entry was “decreased”; the “alterations of metabolite expression in stiff matrix (stiffness-induced glutamine consumption, glutamate production, aspartate production)” value is recorded as “blunted”. Further, in the assay on GLS1, the “lactate/pyruvate ratio (glycolysis)” value is given as “decreased”. Besides, the “apoptosis (cleaved caspase-3 staining, CC-3+)” value in the assay with PAECs [1] (serum starvation, soft and stiff conditions) was “not affected”. In addition, in the assay on PAECs [1] (soft (1 kPa) or stiff (50 kPa) matrix, 24 h after serum depletion, vs vehicle control), the “caspase 3/7 activity” value is on record as “No significant changes”. Besides, the “proliferation in stiff matrix (PCNA+)” value with PAECs [2] (PAECs, stiff matrix, 48 h after plating) is on record as “decreased”. Also, in the assay on PAAFs [3], the aspartate production result is reported as “decreased”, the glutaminolysis entry is listed as “decreased”, the glycolysis entry was “decreased” and the “metabolic activation of PAAFs” value was “blunted”. The “PAAFs dependent ECM remodelling” value in the assay with PAAFs [4] is given as “decreased”.
As to `[N-]=[N+]=CC(=O)CC[C@H](N)C(=O)O` [DON, 6-Diazo-5-oxo-L-norleucine], in the assay on GLS1, the glutamate and aspartate entry is “decreased”; the “glutamine, pyruvate, and succinate” value was “increased”; the lactate result was “decreased”; the “alterations of metabolite expression in stiff matrix (stiffness-induced glutamine consumption, glutamate production, aspartate production)” value is “blunted”. In addition, the “lactate/pyruvate ratio (glycolysis)” value in the assay with GLS1 is “decreased”.
`N[C@@H](CCC(=O)O)C(=O)O` [glutamate, Glutamate]: the “cellular proliferation in cells with diminished GLS1 or YAP/TAZ” value with PAECs [2] (PAECs or PASMCs with siRNA knockdown, glutamate 2 mM, aspartate 10 mM supplementation, data not shown) was “at least partially restored”.
